# Experimental data taken from patent US12544395B2, “Combination compositions comprising a beta-lactamase inhibitor and uses thereof” (priority 2018, dated 2026).
# Read-outs that look alike come from different tables or passages of the source.
# Legend:
# p99 AmpC = target: T1, p99 AmpC (Enterobacter cloacae, UniProt P05364); assay type: biochemical
# T1 construct: expressed as native untagged proteins; made in house; host or cells: E. coli BL21(DE3)
# [1] = Metabolic stability in liver S9; assay type: in vitro ADME; conditions: liver S9; Human; test conc. 3 μM
# [2] = Metabolic stability in liver S9; assay type: in vitro ADME, cynomolgus monkey; conditions: cynomolgus, liver S9; Monkey; test conc. 3 μM
# KPC-2 = target: T2, KPC-2 (Klebsiella pneumoniae, UniProt Q9F663); assay type: biochemical
# T2 construct: expressed as native untagged proteins; made in house; host or cells: E. coli BL21(DE3)
# Protocol: (§1) Assays (200 μl final volume) were performed in PBS in triplicate using 96-well microtiter plates. Cephalothin was used as the substrate for p99 AmpC and CTX-M-15 (50 μM for p99 AmpC; 75 μM for CTX-M-15) and reactions were initiated by addition of enzyme (0.2 nM p99 AmpC; 3 nM CTX-M-15). The decrease in the absorbance at λ260 nm was recorded continuously on a BioTek Powerwave XS2 microplate reader. […] SHV-5 reactions were initiated with 40 nM enzyme, using cefotaxime (100 μM) as the substrate. […] For KPC-2, imipenem (75 μM) was used as the substrate, and reactions initiated with 3 nM enzyme. Reaction progress was monitored by measuring the reduction in absorbance at λ300 nm in continuous fashion. […] Time courses for reaction progress were fit to the following equation, using Prism 7.04 (GraphPad Software, LaJolla, USA) to obtain kobs:
# (§2) Off-rates for Compound 2 with the various beta-lactamases were determined by jump dilution experiments, performed in triplicate. Enzyme and inhibitor were incubated at room temperature for 10 minutes. Enzyme:inhibitor complexes were then diluted 800-fold into reaction buffer (50 mM Hepes, pH 7.0, 0.1 mg/ml BSA), and 20 μL of the diluted reaction immediately added to 180 μl of 110 μM nitrocefin in a 96-well microtiter plate, and the absorbance at λ 486 nm measured continuously on a BioTek Powerwave XS2 microplate reader. The resulting progress curves were fit to a single exponential, from which koff was derived. Half-life was determined using:
# (§3) To determine Ki, plots of the inhibitor concentration versus inverse the initial velocity were fit to a linear equation, and the observed Ki corrected for substrate concentration and affinity by: […]
# CTX-M-15 [3] = target: T3, CTX-M-15 (Escherichia coli, UniProt Q9EXV5); assay type: biochemical
# T3 construct: expressed as native untagged proteins; made in house; host or cells: E. coli BL21(DE3)
# Protocol: as §1, §2, §3
# SHV-5 = target: T4, SHV-5 (Klebsiella pneumoniae, UniProt P0A3M1); assay type: biochemical
# T4 construct: expressed as native untagged proteins; made in house; host or cells: E. coli BL21(DE3)
# Protocol: as §1, §2, §3
# [4] = system: ceftibuten-resistant Enterobacteriaceae expressing OXA-48 (n=20); assay: Checkerboard broth microdilution MIC, BLI concentration impact; assay type: cell-based; conditions: for MIC50: read-out: CTB MIC50; for MIC90: read-out: CTB MIC90
# Protocol: (§4) Minimum inhibitory concentrations (MICs) were determined by broth microdilution method following CLSI guidelines. Tested strains were ceftibuten-resistant Enterobacteriaceae expressing ESBL (n=20), KPC (n=20), OXA-48 (n=20) and/or Class C (n=20) beta-lactamases. For each isolate, one microtiter plate was prepared and formatted as a checkerboard with the BLI (Compound 2 or clavulanic acid) titrated down the plate and ceftibuten titrated across the plate. Each agent was also tested alone. MICs were determined as the well with the lowest concentration of ceftibuten without visible growth at each concentration of BLI.
# [5] = system: ceftibuten-resistant Enterobacteriaceae, All isolates; assay: as above; assay type: cell-based; conditions: for MIC50: read-out: CTB MIC50; for MIC90: read-out: CTB MIC90
# Protocol: as §4
# [6] = system: ceftibuten-resistant Enterobacteriaceae expressing Class C (n=20); assay: as above; assay type: cell-based; conditions: for MIC50: read-out: CTB MIC50; for MIC90: read-out: CTB MIC90
# Protocol: as §4
# [7] = Single ascending dose pharmacokinetics, Solutol HS-15:Water (10:90); assay type: in vivo, Beagle dogs; conditions: beagle, dog, plasma, iv, 10 mg/kg
# IMP-1 = target: T5, IMP-1 (Serratia marcescens, UniProt P52699); assay: Beta-lactamase enzyme inhibition (IC50); assay type: biochemical
# T5 construct: expressed as native untagged proteins; made in house; host or cells: E. coli BL21(DE3)
# E. coli Si-FDL-GES = assay: microbe, parasite or virus in culture; assay type: cell-based
# CTX-M-15 [8] = target: T3, CTX-M-15; assay: Beta-lactamase enzyme inhibition (IC50); assay type: biochemical
# [9] = system: 21 strains of Enterobacteriaceae expressing various beta-lactamases; assay: MIC testing of thigh model strains; assay type: cell-based
# [10] = Metabolic stability in plasma; assay type: in vitro ADME; conditions: cynomolgus, Monkey, test conc. 3 μM
# [11] = Metabolic stability in intestinal S9; assay type: in vitro ADME, cynomolgus monkey; conditions: cynomolgus, intestinal S9; Monkey; test conc. 3 μM
# CMY-2 = target: T6, CMY-2 (Klebsiella pneumoniae, UniProt Q48434); assay: Beta-lactamase enzyme inhibition (IC50); assay type: biochemical
# T6 construct: expressed as native untagged proteins; made in house; host or cells: E. coli BL21(DE3)
# [12] = system: OXA-48-expressing Enterobacteriaceae (n = 39); assay: Broth microdilution MIC, ceftibuten/Compound 2 vs IV comparators
# [13] = system: E. coli (UNT-204-1, TEM-1 plus CTX-M-15 producing); assay type: in vivo, C3H/HeJ mice; conditions: for Log10 Change in CFU/Sample vs. untreated controls, Day 7, Bladder / Log10 Change in CFU/Sample vs. untreated controls, Day 7, Kidneys / Log10 Change in CFU/Sample vs. untreated controls, Day 7, Urine: SC, BID, 3 days
# E. coli 3174 = assay: Broth microdilution MIC (strain enzymes: TEM-1, CTXM-15); assay type: cell-based
smiles,measurement,setting,value
"CCC(=O)N[C@H]1Cc2cccc(C(=O)O)c2OB1O [Compound 2, (R)-2-hydroxy-3-propionamido-3,4-dihydro-2H-benzo[e][1,2]oxaborinine-8-carboxylic acid]",k−2,p99 AmpC,24 ± 0.5 10^−4 s^−1
same,t1/2,p99 AmpC,5.0 ± 0.1 min
same,half-life at 3 μM,[1],> 2 h
same,half-life at 3 μM,[2],> 2 h
same,Ki,KPC-2,110 nM
same,k−2,KPC-2,2.5 ± 0.1 10^−4 s^−1
same,t1/2,KPC-2,0.767 ± 0.0333 h
same,Ki,CTX-M-15 [3],10 nM
same,k−2,CTX-M-15 [3],4.5 ± 0.1 10^−4 s^−1
same,t1/2,CTX-M-15 [3],0.433 ± 0.01 h
same,Ki,SHV-5,41 nM
same,k−2,SHV-5,12.7 ± 0.07 10^−4 s^−1
same,t1/2,SHV-5,6.5 ± 0.04 min
same,MIC50,[4],0.125 µg/mL
same,MIC90,[4],0.5 µg/mL
same,MIC50,[5],0.25 µg/mL
same,MIC90,[5],1 µg/mL
same,MIC50,[6],0.25 µg/mL
same,MIC90,[6],1 µg/mL
same,AUC(0-inf),[7],39300 ng·h/mL
same,Cmax,[7],54.5 µg/mL
same,IC50,IMP-1,> 100000 nM
same,MIC of cefalexin (LEX),E. coli Si-FDL-GES; with inhibitor at 1 μg/mL,0.5 µg/mL
same,MIC of cefdinir (CDR),E. coli Si-FDL-GES; with inhibitor at 1 μg/mL,0.5 µg/mL
same,MIC of cefixime (CFM),E. coli Si-FDL-GES; with inhibitor at 1 μg/mL,0.25 µg/mL
same,MIC of ceftibuten (CTB),E. coli Si-FDL-GES; with inhibitor at 1 μg/mL,0.125 µg/mL
same,MIC of cefalexin (LEX),E. coli Si-FDL-GES; with inhibitor at 2 μg/mL,0.5 µg/mL
same,MIC of cefdinir (CDR),E. coli Si-FDL-GES; with inhibitor at 2 μg/mL,0.5 µg/mL
same,MIC of cefixime (CFM),E. coli Si-FDL-GES; with inhibitor at 2 μg/mL,0.125 µg/mL
same,MIC of ceftibuten (CTB),E. coli Si-FDL-GES; with inhibitor at 2 μg/mL,0.125 µg/mL
same,MIC of cefalexin (LEX),E. coli Si-FDL-GES; with inhibitor at 4 μg/mL,0.5 µg/mL
same,MIC of cefdinir (CDR),E. coli Si-FDL-GES; with inhibitor at 4 μg/mL,0.5 µg/mL
same,MIC of cefixime (CFM),E. coli Si-FDL-GES; with inhibitor at 4 μg/mL,0.125 µg/mL
same,MIC of ceftibuten (CTB),E. coli Si-FDL-GES; with inhibitor at 4 μg/mL,0.125 µg/mL
same,IC50,CTX-M-15 [8],18 nM
same,ceftibuten MICs,[9]; with Compound 2 fixed at 4 mg/L,≤ 2 µg/mL
same,half-life at 3 μM,[10],> 2 h
same,half-life at 3 μM,[11],> 2 h
same,IC50,CMY-2,14 nM
"Nc1nc(/C(=C/CC(=O)O)C(=O)N[C@@H]2C(=O)N3C(C(=O)O)=CCS[C@H]23)cs1 [Ceftibuten, ceftibuten, reference compound]",MIC50,[12],16 µg/mL
same,MIC90,[12],≥ 32 µg/mL
same,"Log10 Change in CFU/Sample vs. untreated controls, Day 7, Bladder",[13]; 3 mg/kg,−0.03 Log10 CFU/Sample
same,"Log10 Change in CFU/Sample vs. untreated controls, Day 7, Kidneys",[13]; 3 mg/kg,−0.44 Log10 CFU/Sample
same,"Log10 Change in CFU/Sample vs. untreated controls, Day 7, Urine",[13]; 3 mg/kg,−1.24 Log10 CFU/Sample
same,"Log10 Change in CFU/Sample vs. untreated controls, Day 7, Bladder",[13]; 10 mg/kg,−1.51 Log10 CFU/Sample
same,"Log10 Change in CFU/Sample vs. untreated controls, Day 7, Kidneys",[13]; 10 mg/kg,−1.55 Log10 CFU/Sample
same,"Log10 Change in CFU/Sample vs. untreated controls, Day 7, Urine",[13]; 10 mg/kg,−0.59 Log10 CFU/Sample
same,"Log10 Change in CFU/Sample vs. untreated controls, Day 7, Bladder",[13]; 30 mg/kg,−2.08 Log10 CFU/Sample
same,"Log10 Change in CFU/Sample vs. untreated controls, Day 7, Kidneys",[13]; 30 mg/kg,−1.57 Log10 CFU/Sample
same,"Log10 Change in CFU/Sample vs. untreated controls, Day 7, Urine",[13]; 30 mg/kg,−2.28 Log10 CFU/Sample
same,reduction of bacterial load in the kidneys (average),"[13]; 100 mg/kg, SC twice daily for 3 days",2.11 log10 CFU
same,"Log10 Change in CFU/Sample vs. untreated controls, Day 7, Bladder",[13]; 100 mg/kg,−2.26 Log10 CFU/Sample
same,"Log10 Change in CFU/Sample vs. untreated controls, Day 7, Kidneys",[13]; 100 mg/kg,−2.11 Log10 CFU/Sample
same,"Log10 Change in CFU/Sample vs. untreated controls, Day 7, Urine",[13]; 100 mg/kg,−2.54 Log10 CFU/Sample
same,"Log10 Change in CFU/Sample vs. untreated controls, Day 7, Bladder",[13]; 300 mg/kg,−1.83 Log10 CFU/Sample
same,"Log10 Change in CFU/Sample vs. untreated controls, Day 7, Kidneys",[13]; 300 mg/kg,−2.14 Log10 CFU/Sample
same,"Log10 Change in CFU/Sample vs. untreated controls, Day 7, Urine",[13]; 300 mg/kg,−3.37 Log10 CFU/Sample
same,MIC,[9]; read-out: ceftibuten MICs,≥ 32 µg/mL
same,MIC,"E. coli 3174; Escherichia coli, 3174, alone, read-out: MIC of ceftibuten (CTB)",0.5 µg/mL
"O=C(O)[C@H]1/C(=C/CO)O[C@@H]2CC(=O)N21 [Clavulanic acid, clavulanic acid, reference compound]",MIC50,[4],8 µg/mL
same,MIC90,[4],> 32 µg/mL
same,MIC50,[5],4 µg/mL
same,MIC90,[5],32 µg/mL
same,MIC50,[6],2 µg/mL
same,MIC90,[6],> 32 µg/mL
same,MIC of cefalexin (LEX),E. coli Si-FDL-GES; with inhibitor at 4 μg/mL,1 µg/mL
same,MIC of cefdinir (CDR),E. coli Si-FDL-GES; with inhibitor at 4 μg/mL,1 µg/mL
same,MIC of cefixime (CFM),E. coli Si-FDL-GES; with inhibitor at 4 μg/mL,0.5 µg/mL
same,MIC of ceftibuten (CTB),E. coli Si-FDL-GES; with inhibitor at 4 μg/mL,0.25 µg/mL
same,MIC of cefalexin (LEX),E. coli 3174; with inhibitor at 4 μg/mL,0.25 µg/mL
same,MIC of cefdinir (CDR),E. coli 3174; with inhibitor at 4 μg/mL,0.25 µg/mL
same,MIC of cefixime (CFM),E. coli 3174; with inhibitor at 4 μg/mL,0.5 µg/mL
same,MIC of ceftibuten (CTB),E. coli 3174; with inhibitor at 4 μg/mL,0.5 µg/mL
